Earlier results on one compound are cited in patent US6949259B1, “Solid preparations for oral use” (Kyorin Pharmaceutical Co., Ltd., priority 1999, dated 2005).

The conditions of data set [1]: Nomura M. et al, Bioorg. Med. Chem. Lett., 9 (1999), 533-538.
The conditions of data set [2]: Nomura M. et al, Bioorg. Med. Chem. Lett., 9 (1999), 533-538. This is another data set of the same source.

In the case of `COc1ccc(CC2SC(=O)NC2=O)cc1C(=O)NCc1ccc(C(F)(F)F)cc1` (racemic) [KRP-297, (±)-5-[(2,4-dioxothiazolidine-5-yl)methyl]-2-methoxy-N-[[4-(trifluoromethyl)phenyl]methyl]-benzamide], in data set [1], the lipid-lowering action entry was “lipid-lowering action”. In addition, the blood glucose-lowering action result in data set [2] was “potent blood glucose-lowering action”.
